Assay type in all cases: biochemical
The target in one experiment is T1, PDE7A (Homo sapiens, UniProt Q13946).
T1 construct: cell lysate containing full length PDE7A, PDE7B and PDE1C enzyme; made in house; host or cells: cell lysate
In words: PDE7A [3H]-cAMP scintillation proximity assay (SPA) enzyme inhibition. Particulars: for Ki: full length PDE7A in cell lysate, ~25 nM cAMP, Ki from IC50 by Cheng-Prussof equation; for 1C/7A selectivity: ratio PDE1C Ki / PDE7A Ki. The procedure: (§1) The ability of the compounds of formula (I) to inhibit PDE7 and PDE1 may be measured using the following assay protocol.
(§2) PDE7A, PDE7B and PDE1C enzymes catalyse the hydrolysis of 3′,5′-cyclic adenosine monophosphate (cAMP) to the 5′ adenosine monophosphate, 5′AMP. In a multiwell plate, PDE enzyme, [^3H]-cAMP and the test compounds, are incubated at room temperature. The incubation is terminated by addition of commercially available yttrium silicate scintillation proximity assay (SPA) beads containing zinc sulphate. The yttrium silicate beads preferentially bind linear nucleotides, thus the product of the enzyme reaction, [^3H]-5′AMP binds to the bead to produce a light signal, which is detected by a scintillation counter. The amount of signal produced directly correlates with the amount of product formed, and thus the activity of the enzyme. The maximum signal is obtained where enzyme and substrate are incubated alone. The background signal is measured from wells either containing no enzyme, or from wells containing a supra-maximal concentration of a known PDE 7A/7B/1C inhibitor. Each purified batch of enzyme is quality controlled and its Km, Vmax and specific activity determined from kinetic studies before use in compound inhibition studies. The inhibition of the enzyme, by a test compound, is calculated relative to the maximum and background responses.
(§3) The compound of Example 75 of WO 02/074754, 5′-carboxypropoxy-8′-chloro-spiro[cyclohexane-1-4′-(3′,4′-dihydro)quinazolin]-2′(1′H)-one (referred to as compound A hereafter) was used as a standard for PDE7A and PDE7B. The compound of Example 32 of WO 02/074754, 4-(8′-chloro-2′-oxo-2′,3′-dihydro-1′H-spiro[cyclohexane-1,4′-quinazolin]-6′-yl)benzoic acid (referred to as compound B hereafter) was used as a standard for PDE1C.
(§4) The optimisation of this assay has been carried out using cell lysate containing full length PDE7A, PDE7B and PDE1C enzyme. The concentration of the enzyme in this cell lysate sample is unknown, so the specific activity of the cell lysate is used as a measure to ensure that the same activity per well is used despite any batch-to-batch variation of concentration/activity.
(§5) PDE7A/7B/1C stock enzyme was prepared and kept at −20° C. in appropriately sized aliquots to reduce the number of freeze/thaw cycles. […] PDE7A is diluted to 1/8000, PDE7B to 1/10000 and PDE1C to 1/200000.
(§6) The final assay [cAMP] of ˜25 nM is required, so ˜50 nM [^3H]-cAMP was prepared. 9 ml of substrate solution was prepared by mixing 10.8 μl of [^3H]-cAMP (available from Amersham) with 8975 μl of assay buffer.
(§7) 1 μl test compound was transferred into a suitable multi-well assay plate immediately prior to reagent assay addition, 14 μl enzyme solution was then added to the assay plate, followed by 15 μl substrate solution (ie: final assay volume 30 μl, with a final screening compound concentration of 1 μM for PDE7A and PDE7B and 10 μM for PDE1C). The plate was then sealed using a plate sealer and incubated at room temperature for 45 min on the plate shaker.
(§8) 30 μl Yttrium Silicate PDE4 SPA beads were then added, ensuring constant stirring of the beads to give even distribution in the assay plate. The plate was then sealed using a plate sealer and incubated at room temperature for 30 mins on the plate shaker. The beads were then allowed to settle for 30 mins, before spinning the plates for 1 min at 200 g.
(§9) The plates were then read on a suitable radioactive counter, for example NXT-TopCount™ (available from Perkin Elmer) using the relevant protocol (30 second read time per well).
(§10) The data was fitted to a sigmoid curve using a least squares algorithm.
(§11) The IC50 value was converted to a value using the Cheng-Prussof equation: […]
On the technique in general: Scintillation proximity formats need no separation of bound from free tracer.

The target in the next experiment is T2, PDE7B (Homo sapiens, UniProt Q9NP56).
T2 construct: cell lysate containing full length PDE7A, PDE7B and PDE1C enzyme; made in house; host or cells: cell lysate
In words: PDE7B [3H]-cAMP scintillation proximity assay (SPA) enzyme inhibition. As to conditions: for Ki: full length PDE7B in cell lysate, ~25 nM cAMP, Ki from IC50 by Cheng-Prussof equation; for 1C/7B selectivity: ratio PDE1C Ki / PDE7B Ki. The method, then: as §1, §2, §3, §4, §5, §6, §7, §8, §9, §10, §11

For the next experiment, the target named is T3, PDE1C (Homo sapiens, UniProt Q14123).
T3 construct: cell lysate containing full length PDE7A, PDE7B and PDE1C enzyme; made in house; host or cells: cell lysate
Briefly: PDE1C [3H]-cAMP scintillation proximity assay (SPA) enzyme inhibition. Particulars: full length PDE1C in cell lysate; 75 nM cAMP; Ki from IC50 by Cheng-Prussof equation. The procedure:
as §1, §2, §3, §4, §5
The final assay [cAMP]=75 nM therefore the required solution [cAMP]=0.15 μM (1/2 dilution in assay plate)
as §7, §8, §9, §10, §11

One may read the Ki as a measure of affinity in units of concentration, obtained from inhibition or displacement. Low values mean a stronger hold on the target, high ones a looser hold on the target.

T1 sequence (Q13946 whole entry): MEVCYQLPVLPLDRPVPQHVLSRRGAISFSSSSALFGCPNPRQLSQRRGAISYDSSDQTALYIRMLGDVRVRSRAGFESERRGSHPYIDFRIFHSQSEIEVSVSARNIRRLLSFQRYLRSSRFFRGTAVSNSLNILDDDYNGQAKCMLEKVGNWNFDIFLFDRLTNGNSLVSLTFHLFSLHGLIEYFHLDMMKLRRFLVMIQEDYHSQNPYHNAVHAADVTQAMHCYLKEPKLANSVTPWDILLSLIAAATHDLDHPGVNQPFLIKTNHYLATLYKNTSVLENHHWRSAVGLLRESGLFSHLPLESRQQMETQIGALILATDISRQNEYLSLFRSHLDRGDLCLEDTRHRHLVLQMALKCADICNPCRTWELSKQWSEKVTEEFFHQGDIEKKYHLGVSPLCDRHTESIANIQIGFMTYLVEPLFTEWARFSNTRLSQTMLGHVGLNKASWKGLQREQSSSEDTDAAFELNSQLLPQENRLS
T2 sequence (Q9NP56 whole entry): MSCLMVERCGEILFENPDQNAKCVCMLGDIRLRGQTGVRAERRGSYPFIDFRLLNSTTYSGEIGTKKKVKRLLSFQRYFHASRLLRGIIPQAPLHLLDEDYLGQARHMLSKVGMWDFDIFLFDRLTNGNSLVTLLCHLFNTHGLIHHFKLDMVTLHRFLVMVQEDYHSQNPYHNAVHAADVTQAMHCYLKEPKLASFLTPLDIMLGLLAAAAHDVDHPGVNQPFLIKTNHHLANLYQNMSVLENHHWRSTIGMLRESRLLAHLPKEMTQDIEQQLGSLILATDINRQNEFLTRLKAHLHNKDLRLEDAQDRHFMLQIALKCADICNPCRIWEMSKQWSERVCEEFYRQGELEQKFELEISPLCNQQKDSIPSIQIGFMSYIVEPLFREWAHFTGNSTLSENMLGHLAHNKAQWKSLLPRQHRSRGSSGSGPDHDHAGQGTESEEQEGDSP
T3 sequence (Q14123 whole entry): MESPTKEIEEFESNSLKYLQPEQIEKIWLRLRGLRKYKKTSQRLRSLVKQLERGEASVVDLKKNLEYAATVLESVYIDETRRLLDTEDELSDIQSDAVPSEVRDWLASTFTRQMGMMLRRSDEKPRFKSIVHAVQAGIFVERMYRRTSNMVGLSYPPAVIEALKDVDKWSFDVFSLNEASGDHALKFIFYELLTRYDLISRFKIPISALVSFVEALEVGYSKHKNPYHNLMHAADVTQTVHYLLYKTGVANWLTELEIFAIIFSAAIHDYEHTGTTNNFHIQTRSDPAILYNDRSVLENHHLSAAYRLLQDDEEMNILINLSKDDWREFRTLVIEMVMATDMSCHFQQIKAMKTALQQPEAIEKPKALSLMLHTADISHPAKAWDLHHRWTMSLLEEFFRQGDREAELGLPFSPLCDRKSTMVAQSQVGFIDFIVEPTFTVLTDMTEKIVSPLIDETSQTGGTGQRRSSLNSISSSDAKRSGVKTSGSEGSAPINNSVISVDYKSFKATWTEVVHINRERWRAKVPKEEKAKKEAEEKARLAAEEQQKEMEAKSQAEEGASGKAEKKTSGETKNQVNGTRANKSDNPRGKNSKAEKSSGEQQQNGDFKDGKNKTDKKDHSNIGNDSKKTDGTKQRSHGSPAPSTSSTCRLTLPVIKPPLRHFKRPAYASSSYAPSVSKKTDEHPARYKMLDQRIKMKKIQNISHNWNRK

For the compound `O=C1Nc2c(Cl)ccc(Oc3c(F)cccc3C(=O)O)c2C2(CCCCC2)N1` [Example 6, 2-{(8′-chloro-2′-oxo-2′,3′-dihydro-1′H-spiro[cyclohexane-1,4′-quinazolin]-5′-yl)oxy}-3-fluorobenzoic acid], the Ki on PDE7A was 1.7 nM; at PDE7B, 3.4 nM; on PDE1C, 584 nM. The 1C/7A selectivity on PDE7A turned out to be 336. The 1C/7B selectivity at PDE7B is reported as 172.

`O=C1Nc2c(Cl)ccc(Oc3c(F)cccc3-c3noc(=O)[nH]3)c2C2(CCCCC2)N1` [Example 18, 8′-chloro-5′-[2-fluoro-6-(5-oxo-4,5-dihydro-1,2,4-oxadiazol-3-yl)phenoxy]-1′H-spiro[cyclohexane-1,4′-quinazolin]-2′(3′H)-one]: on PDE7A, the affinity corresponds to a Ki of 1.1 nM and the 1C/7A selectivity stood at 85. At PDE7B, the Ki turned out to be 1.6 nM and the 1C/7B selectivity is on record as 59. Moreover, the Ki on PDE1C is 94 nM.

Turning to `O=C1Nc2c(Cl)ccc(Oc3ccc(F)cc3-c3nn[nH]n3)c2C2(CCCCC2)N1` [Example 11, 8′-chloro-5′-[4-fluoro-2-(1H-tetrazol-5-yl)phenoxy]-1′H-spiro[cyclohexane-1,4′-quinazolin]-2′(3′H)-one], the values for the Ki on PDE7A, on PDE7B and at PDE1C were less than 0.2 nM, 1 nM and 70 nM, respectively. Besides, the 1C/7A selectivity at PDE7A was more than 307. The 1C/7B selectivity at PDE7B is given as 70.

Turning to `O=C1Nc2c(Cl)ccc(Oc3c(Cl)cccc3-c3nn[nH]n3)c2C2(CCCC2)N1` [Example 15, 8′-chloro-5′-[6-chloro-2-(1H-tetrazol-5-yl)phenoxy]-1′H-spiro[cyclopentane-1,4′-quinazolin]-2′(3′H)-one], on PDE7A, affinity was put at a Ki of 5 nM and the 1C/7A selectivity worked out at 217. On PDE7B, the Ki was 6.6 nM and the 1C/7B selectivity worked out at 164. The Ki on PDE1C worked out at 1080 nM.

Take `O=C1Nc2c(Cl)ccc(Oc3ccccc3-c3nnn[nH]3)c2C2(CCCCC2)N1` [Example 17, 8′-chloro-5′-[2-(1H-tetrazol-5-yl)phenoxy]-1′H-spiro[cyclohexane-1,4′-quinazolin]-2′(3′H)-one]: the Ki at PDE7A was less than 0.15 nM; at PDE7B, 0.8 nM; at PDE1C it was 37 nM. The 1C/7A selectivity on PDE7A was more than 245. For the same compound, on PDE7B, the 1C/7B selectivity was 48.

As to `O=C(O)Cc1cccc(F)c1Oc1ccc(Cl)c2c1C1(CCCCC1)NC(=O)N2` [Example 22, {2-[(8′-chloro-2′-oxo-2′,3′-dihydro-1′H-spiro[cyclohexane-1,4′-quinazolin]-5′-yl)oxy]-3-fluorophenyl}acetic acid], at PDE7A, the Ki is less than 0.05 nM and the 1C/7A selectivity is recorded as more than 282.

Turning to `O=C(O)COc1ccccc1Oc1ccc(Cl)c2c1C1(CCCCC1)NC(=O)N2` [Example 23, {2-[(8′-chloro-2′-oxo-2′,3′-dihydro-1′H-spiro[cyclohexane-1,4′-quinazolin]-5′-yl)oxy]phenoxy}acetic acid], at PDE7A, the affinity, expressed as Ki, was 0.48 nM and the 1C/7A selectivity is 121. On PDE7B, affinity was put at a Ki of 1.9 nM and the 1C/7B selectivity came out at 31. On PDE1C, this compound gave an inhibition constant (Ki) of 58 nM.

As for `O=C1Nc2c(Cl)ccc(Oc3ccccc3-c3nn[nH]n3)c2C2(CCCC2)N1` [Example 16, 8′-chloro-5′-[2-(1H-tetrazol-5-yl)phenoxy]-1′H-spiro[cyclopentane-1,4′-quinazolin]-2′(3′H)-one], on PDE7A, the Ki turned out to be 2.3 nM and the 1C/7A selectivity is 345. Further, on PDE7B, the Ki is 9.8 nM and the 1C/7B selectivity is 79. On PDE1C, this compound had a Ki of 778 nM.

With `O=C(O)COc1cccc(-c2ccc(Cl)c3c2C2(CCCCC2)NC(=O)N3)c1` [Example 5, [3-(8′-chloro-2′-oxo-2′,3′-dihydro-1′H-spiro[cyclohexane-1,4′-quinazolin]-5′-yl)phenoxy]acetic acid], the figures for the Ki on PDE7A, on PDE7B and at PDE1C were 4.5 nM, 51 nM and more than 5730 nM, respectively. Moreover, the 1C/7A selectivity at PDE7A is on record as more than 1260. Further, the 1C/7B selectivity at PDE7B is on record as more than 113.

On to `O=C1Nc2c(Cl)ccc(Oc3c(F)cccc3-c3n[nH]c(=O)[nH]3)c2C2(CCCCC2)N1` [Example 19, 8′-chloro-5′-[2-fluoro-6-(5-oxo-4,5-dihydro-1H-1,2,4-triazol-3-yl)phenoxy]-1′H-spiro[cyclohexane-1,4′-quinazolin]-2′(3′H)-one], for which, at PDE7A, the Ki was found to be 0.94 nM and the 1C/7A selectivity was found to be 183. On PDE7B, the Ki worked out at 1.5 nM and the 1C/7B selectivity was 115. At PDE1C, this compound returned a Ki of 172 nM.

With `O=C1Nc2c(Cl)ccc(Oc3c(F)cccc3-c3nn[nH]n3)c2C2(CCCCC2)N1` [Example 10, 8′-chloro-5′-[2-fluoro-6-(2H-tetrazol-5-yl)phenoxy]-1′H-spiro[cyclohexane-1,4′-quinazolin]-2′(3′H)-one], at PDE7A, affinity was put at a Ki of 0.1 nM and the 1C/7A selectivity came out at 743. For the same compound, on PDE7B, affinity was put at a Ki of 0.4 nM and the 1C/7B selectivity is reported as 186. For the same compound, the affinity on PDE1C, expressed as Ki, was 73 nM.

On to `O=C1Nc2c(Cl)ccc(Oc3c(Cl)cccc3C(=O)O)c2C2(CCCCC2)N1` [Example 8, 3-chloro-2-{(8′-chloro-2′-oxo-2′,3′-dihydro-1′H-spiro[cyclohexane-1,4′-quinazolin]-5′-yl)oxy}benzoic acid], for which, at PDE7A, the Ki came to 4.8 nM and the 1C/7A selectivity is listed as 380. Moreover, on PDE7B, the affinity corresponds to a Ki of 9.4 nM and the 1C/7B selectivity came to 192. The compound further yielded a Ki on PDE1C of 1810 nM.

Consider `CS(=O)(=O)NC(=O)c1cccc(F)c1Oc1ccc(Cl)c2c1C1(CCCCC1)NC(=O)N2` [Example 20, 2-[(8′-chloro-2′-oxo-2′,3′-dihydro-1′H-spiro[cyclohexane-1,4′-quinazolin]-5′-yl)oxy]-3-fluoro-N-(methylsulfonyl)benzamide], for which, on PDE7A, affinity was put at a Ki of 2.3 nM and the 1C/7A selectivity is 290. For the same compound, at PDE7B, the Ki is 7 nM and the 1C/7B selectivity is 94. For the same compound, at PDE1C, the Ki stood at 657 nM.

Regarding `O=C1Nc2c(Cl)ccc(OCc3ccc(C(=O)O)o3)c2C2(CCCCC2)N1` [Compound C, 5-{[(8′-chloro-2′-oxo-2′,3′-dihydro-1′H-spiro[cyclohexane-1,4′-quinazolin]-5′-yl)oxy]methyl}-2-furoic acid, reference compound], at PDE7A, the inhibition constant (Ki) came out at 6.7 nM and the 1C/7A selectivity came to 45. Also, at PDE7B, affinity was put at a Ki of 33 nM and the 1C/7B selectivity is given as 9.2. Moreover, the affinity at PDE1C corresponds to a Ki of 305 nM.

Take `O=C1Nc2c(Cl)ccc(Oc3c(F)cccc3C(=O)O)c2C2(CCCC2)N1` [Example 7, 2-{(8′-chloro-2′-oxo-2′,3′-dihydro-1′H-spiro[cyclopentane-1,4′-quinazolin]-5′-oxy}-3-fluorobenzoic acid]: the Ki at PDE7A stood at 11 nM; on PDE7B, 21 nM; at PDE1C it was 2260 nM. Further, the 1C/7A selectivity on PDE7A turned out to be 201. Further, the 1C/7B selectivity on PDE7B came out at 107.

Take `O=C1Nc2c(Cl)ccc(-c3ccc(F)c(-c4nn[nH]n4)c3)c2C2(CCCCC2)N1` [Example 4]: the figures for the inhibitory constant (Ki) at PDE7A, on PDE7B and at PDE1C were 7.5 nM, 45 nM and 1560 nM, respectively. Besides, the 1C/7A selectivity at PDE7A was found to be 207. The 1C/7B selectivity on PDE7B was found to be 35.

The values above are taken from US20100216823A1 (Pfizer Inc., priority 2007, published 2010).
